2 molecules from ChEMBL document CHEMBL3046201, “Insights into the molecular mechanism of tolerance to carboxylic acid amide (CAA) fungicides in Pythium aphanidermatum” (2012) can be followed below.

Each structure is given as a SMILES string. Calls of active or inactive are those of the source. The rule behind the calls is not given here.

The subject of experiment [1] is Pythium aphanidermatum. Nature of the experiment: Down-regulation of CesA3 gene expression in Pythium aphanidermatum at 200 uM after 0.5 to 4 hr by qRT-PCR method. The format is functional, organism-based. On the technique in general: In qPCR the cycle at which signal appears reflects the starting amount.
The subject of experiment [2] is Pythium aphanidermatum. Nature of the experiment: Effect on CesA3 gene expression in Pythium aphanidermatum at 200 uM after 8 hr by qRT-PCR method. Type of experiment: functional, organism-based.
Experiment [3] deals with Pythium aphanidermatum. Nature of the experiment: Antifungal activity against Pythium aphanidermatum assessed as inhibition of mycelial growth at 200 uM after 3 days. The format is functional. The conditions noted are these: 72 h, read-out: GI.
Experiment [4] deals with Pythium aphanidermatum. As to the kind of experiment: Effect on CesA1 gene expression in Pythium aphanidermatum at 200 uM after 8 hr by qRT-PCR method. Type of experiment: functional, organism-based.
For experiment [5], the system named is Pythium aphanidermatum. As to the kind of experiment: Down-regulation of CesA2 gene expression in Pythium aphanidermatum at 200 uM after 0.5 to 4 hr by qRT-PCR method. The format is functional, organism-based.
For experiment [6], the system named is Saprolegnia monoica. Nature of the experiment: Antifungal activity against Saprolegnia monoica assessed as inhibition of mycelial growth at 200 uM after 3 days. Type of experiment: functional. The conditions noted are these: 72 h, read-out: GI.
Experiment [7] concerns Pythium aphanidermatum. Nature of the experiment: Effect on PaChs gene expression in Pythium aphanidermatum at 200 uM after 0.5 to 8 hr by qRT-PCR method. The format is functional, organism-based.
For experiment [8], the system named is Pythium aphanidermatum. As to the kind of experiment: Inhibition of germ tube elongation of Pythium aphanidermatum synchronised cytospores at >100 uM after 4 hr. The format is functional, organism-based.
In experiment [9] the test system is Pythium aphanidermatum. As to the kind of experiment: Inhibition of zoospores release of Pythium aphanidermatum synchronised cytospores at 100 uM after 4 hr. The format is functional, organism-based.
In experiment [10] the test system is Pythium aphanidermatum. Nature of the experiment: Effect on PaChs gene expression in Pythium aphanidermatum at 100 uM after 0.5 to 8 hr by qRT-PCR method. The format is functional, organism-based.
Experiment [11] has as its system Pythium aphanidermatum. Nature of the experiment: Effect on CesA2 gene expression in Pythium aphanidermatum at 200 uM after 8 hr by qRT-PCR method. Type of experiment: functional, organism-based.
The test system of experiment [12] is Pythium aphanidermatum. Nature of the experiment: Inhibition of germ tube elongation of Pythium aphanidermatum synchronised cytospores at 500 uM after 4 hr. The format is functional.
The subject of experiment [13] is Pythium aphanidermatum. Nature of the experiment: Effect on CesA4 gene expression in Pythium aphanidermatum at 100 uM after 0.5 to 8 hr by qRT-PCR method. The format is functional, organism-based.
For experiment [14], the system named is Pythium aphanidermatum. Nature of the experiment: Down-regulation of CesA4 gene expression in Pythium aphanidermatum at 200 uM after 0.5 to 4 hr by qRT-PCR method. The format is functional, organism-based.
Experiment [15] relates to Pythium aphanidermatum. As to the kind of experiment: Inhibition of zoospores encystment of Pythium aphanidermatum synchronised cytospores at 100 uM after 4 hr. The format is functional, organism-based.
The subject of experiment [16] is Pythium aphanidermatum. Nature of the experiment: Down-regulation of CesA1 gene expression in Pythium aphanidermatum at 200 uM after 0.5 to 4 hr by qRT-PCR method. The format is functional, organism-based.
The subject of experiment [17] is Pythium aphanidermatum. Nature of the experiment: Effect on CesA4 gene expression in Pythium aphanidermatum at 200 uM after 8 hr by qRT-PCR method. Type of experiment: functional, organism-based.
Experiment [18] relates to Pythium aphanidermatum. Nature of the experiment: Effect on CesA3 gene expression in Pythium aphanidermatum at 100 uM after 0.5 to 8 hr by qRT-PCR method. The format is functional, organism-based.
Experiment [19] concerns Pythium aphanidermatum. Nature of the experiment: Antifungal activity against Pythium aphanidermatum assessed as inhibition of mycelial growth at 10 uM after 3 days. The format is functional, organism-based.
Experiment [20] deals with Pythium aphanidermatum. Nature of the experiment: Inhibition of germ tube elongation of Pythium aphanidermatum synchronised cytospores at 0.5 to 121 uM after 4 hr. The format is functional, organism-based.
For experiment [21], the system named is Pythium aphanidermatum. Nature of the experiment: Up-regulation of CesA1 gene expression in Pythium aphanidermatum at 100 uM after 8 hr by qRT-PCR method relative to untreated control. Type of experiment: functional.
Experiment [22] has as its system Pythium aphanidermatum. As to the kind of experiment: Antifungal activity against Pythium aphanidermatum assessed as inhibition of mycelial growth at 100 uM after 3 days. The format is functional. The conditions noted are these: 72 h, read-out: GI.
The test system of experiment [23] is Pythium aphanidermatum. Nature of the experiment: Up-regulation of CesA2 gene expression in Pythium aphanidermatum at 100 uM after 8 hr by qRT-PCR method relative to untreated control. The format is functional.

As for `N#Cc1c(Cl)cccc1Cl` [DICHLOBENIL], the outcome in experiment [1], in experiment [5], in experiment [14] and in [16] was Active. Further, the outcome in experiment [2], in experiment [4], in experiment [7], in [10], in experiment [11] and in experiment [13] was inactive. Moreover, the outcome in [17] and in experiment [18] was inactive. The values for the inhibition of growth at 200 µM in [3] and in experiment [6] were 12% and 40%, respectively. Besides, in [8], the inhibition – broadly, how much of the control response was suppressed – is “Active”. Besides, the inhibition result in experiment [9] and in [15] was “inactive” in each case. For the same molecule, 500 µM produced 18% inhibition in [12].

For the molecule `C#CCOc1ccc(CCNC(=O)C(OCC#C)c2ccc(Cl)cc2)cc1OC` (stereo not drawn) [MANDIPROPAMID], the “growth inhibition (GI)” value in experiment [19] was “inactive”. Besides, in experiment [20], the inhibition entry was “inactive”. The “fold change (FC)” value in experiment [21] turned out to be 1.6; in experiment [23], 2. The inhibition of growth at 100 µM in [22] turned out to be 34%.
